Results as given in the supplement of paper PMC10307832.

Legend:
Assay in all cases: relative viability (nuclei count vs DMSO), 5 days (fraction); higher = more cells survive
[1] = compound: C1COCCN1C2=NC(=NC3=C2OC4=C3C=CC=N4)C5=CC(=CC=C5)NC(=O)C6=CN=C(C=C6)N + O=C(CCCCCCC(=O)Nc1ccccc1)NO [Vorinostat] (partner 1 µM)
Outline: (§1)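 Medians of duplicate plates are given as relative viability. That measure is the nuclei count in treated wells divided by the count in vehicle wells. Counts were taken on 4× images of lung cancer cell lines in 1536-well plates, 5 days after pin-tool dosing the day after seeding with one drug alone or a fixed anchor-drug dose plus five library-drug doses (not always all listed) in √10 steps.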

[2] = compound: Nc1ccccc1NC(=O)c1ccc(CNC(=O)OCc2cccnc2)cc1 [Entinostat] + O=C(c1cc(Cc2n[nH]c(=O)c3ccccc23)ccc1F)N1CCN(C(=O)C2CC2)CC1 [Olaparib] (partner 8 µM)
Outline: as §1

[3] = compound: C1COCCN1C2=NC(=NC3=C2OC4=C3C=CC=N4)C5=CC(=CC=C5)NC(=O)C6=CN=C(C=C6)N + C[C@@H](Oc1cc(-c2cnn(C3CCNCC3)c2)cnc1N)c1c(Cl)ccc(F)c1Cl [Crizotinib] (partner 1 µM)
Outline: as §1

[4] = compound: Nc1ccccc1NC(=O)c1ccc(CNC(=O)OCc2cccnc2)cc1 [Entinostat] + CC1(C)CCC(c2ccc(Cl)cc2)=C(CN2CCN(c3ccc(C(=O)NS(=O)(=O)c4ccc(N[C@H](CCN5CCOCC5)CSc5ccccc5)c(S(=O)(=O)C(F)(F)F)c4)cc3)CC2)C1 [Navitoclax] (partner 0.5 µM)
Outline: as §1

Cell Line | relative viability ([1]; first compound 0.02 µM) | relative viability ([1]; first compound 0.06325 µM) | relative viability ([1]; first compound 0.2 µM) | relative viability ([1]; first compound 0.6325 µM) | relative viability ([1]; first compound 2 µM) | relative viability ([2]; first compound 0.02 µM) | relative viability ([2]; first compound 0.06325 µM) | relative viability ([2]; first compound 0.2 µM) | relative viability ([2]; first compound 0.6325 µM) | relative viability ([2]; first compound 2 µM) | relative viability ([3]; first compound 0.02 µM) | relative viability ([3]; first compound 0.06325 µM) | relative viability ([3]; first compound 0.2 µM) | relative viability ([3]; first compound 0.6325 µM) | relative viability ([3]; first compound 2 µM) | relative viability ([4]; first compound 0.02 µM) | relative viability ([4]; first compound 0.06325 µM) | relative viability ([4]; first compound 0.2 µM) | relative viability ([4]; first compound 0.6325 µM) | relative viability ([4]; first compound 2 µM)
SW 900 | 0.455 | 0.573 | 0.488 | 0.425 | 0.392 | 0.857 | 0.815 | 0.902 | 0.616 | 0.355 | – | – | – | – | – | – | – | – | – | –
NCI-H1944 | 0.533 | 0.65 | 0.5 | 0.485 | 0.477 | 0.373 | 0.323 | 0.216 | 0.177 | 0.172 | 1.23 | 1.34 | 1.09 | 1.25 | 0.887 | 0.985 | 0.998 | 0.938 | 0.485 | 0.311
NCI-H838 | 0.725 | 0.754 | 0.676 | 0.646 | 0.5 | 0.819 | 0.79 | 0.759 | 0.452 | 0.201 | 0.901 | 0.809 | 0.674 | 0.722 | 0.439 | 1.21 | 1.27 | 1.17 | 0.694 | 0.296
NCI-H1651 | 0.382 | 0.595 | 0.563 | 0.537 | 0.529 | 0.2 | 0.199 | 0.199 | 0.174 | 0.154 | 0.835 | 0.894 | 0.854 | 0.865 | 0.671 | 1.02 | 1.06 | 1.09 | 0.709 | 0.273
HCC-827 | 0.792 | 1.05 | 0.868 | 0.661 | 0.811 | 0.587 | 0.623 | 0.488 | 0.322 | 0.237 | 0.905 | 0.97 | 0.91 | 0.985 | 0.93 | 1.03 | 0.93 | 0.812 | 0.595 | 0.386
HCC-366 | 0.395 | 0.36 | 0.327 | 0.444 | 0.249 | 0.343 | 0.311 | 0.212 | 0.132 | 0.0516 | 0.594 | 0.808 | 0.575 | 0.629 | 0.327 | 1.06 | 0.946 | 0.905 | 0.529 | 0.138
HARA | 0.463 | 0.597 | 0.51 | 0.431 | 0.361 | 0.761 | 0.944 | 0.675 | 0.876 | 0.314 | 1.01 | 1.23 | 1.06 | 0.978 | 0.662 | 1.18 | 1.14 | 1.12 | 1.09 | 0.935
NCI-H441 | 0.759 | 0.918 | 0.798 | 0.701 | 0.377 | 0.625 | 0.467 | 0.317 | 0.18 | 0.113 | 0.71 | 0.679 | 0.688 | 0.923 | 0.415 | 0.689 | 0.505 | 0.632 | 0.233 | 0.0467
NCI-H1299 | – | – | – | – | – | 1.03 | 0.923 | 0.965 | 0.702 | 0.585 | 0.942 | 0.95 | 0.937 | 0.958 | 0.669 | 1.05 | 1.01 | 1.05 | 0.936 | 0.763
RERF-LC-KJ | 0.696 | 0.782 | 0.653 | 0.603 | 0.598 | 0.901 | 0.903 | 0.795 | 0.373 | 0.282 | 1.02 | 0.913 | 0.798 | 0.794 | 0.748 | 0.679 | 0.905 | 1.13 | 0.414 | 0.314
CAL-12T | 0.789 | 1 | 0.769 | 0.601 | 0.431 | 0.728 | 0.781 | 0.854 | 0.767 | 0.572 | 0.843 | 0.634 | 0.688 | 0.559 | 0.507 | 1.22 | 1.17 | 1.41 | 1.22 | 1.08
COR-L 105 | 0.787 | 0.839 | 0.701 | 0.768 | 0.603 | 0.683 | 0.825 | 0.773 | 0.483 | 0.407 | 0.792 | 0.722 | 0.567 | 0.752 | 0.481 | 0.771 | 0.911 | 0.738 | 0.407 | 0.333
NCI-H2405 | 1.07 | 1.07 | 1.03 | 0.921 | 0.645 | 0.843 | 0.895 | 0.861 | 0.72 | 0.623 | 0.885 | 0.864 | 0.848 | 0.821 | 0.659 | 1 | 1.13 | 1.15 | 0.814 | 0.655
NCI-H2228 | 0.469 | 0.743 | 0.464 | 0.529 | 0.39 | 0.633 | 0.749 | 0.613 | 0.254 | 0.176 | 0.489 | 0.536 | 0.364 | 0.397 | 0.291 | 1.03 | 0.758 | 0.52 | 0.365 | 0.349
PC-14 | 0.784 | 0.816 | 0.648 | 0.603 | 0.362 | 0.291 | 0.294 | 0.321 | 0.104 | 0.0475 | 1.01 | 1.07 | 0.865 | 0.784 | 0.396 | 0.999 | 1.07 | 1.14 | 0.47 | 0.113
IA-LM | 0.855 | 1.03 | 1.08 | 0.44 | 0.401 | 0.807 | 0.845 | 0.871 | 0.693 | 0.536 | 1.05 | 0.733 | 0.619 | 0.58 | 0.369 | 0.802 | 0.861 | 0.898 | 0.685 | 0.378
A549 | – | – | – | – | – | 0.332 | 0.375 | 0.334 | 0.258 | 0.232 | 1 | 0.903 | 0.66 | 0.764 | 0.302 | 1.22 | 1.21 | 1.07 | 0.787 | 0.395
